Experimental data reported in article PMC12040169 (PLOS Biology, 2025).

Experiment: in vitro
Details: human, hela cells, % viability

Row | SMILES | viability at 28.5 h, 10 µM [%]
1 | c1ccc(-n2cc(-c3cncn3CCCN3CCCCC3)cn2)cc1 [CBK281465] | 92.4
2 | Cc1noc(C)c1CC(=O)NC(C)c1nc2ccccc2s1 (stereo not shown) [CBK281467] | 107
3 | O=C(c1cc2c(F)cccc2[nH]1)N1CCC(Oc2cccnc2)CC1 [CBK281468] | 103
4 | CC(=O)N1CCc2cc(NC(=O)C3CC4C=CC3C43CC3)ccc21 (stereo not shown) [CBK281472] | 79.8
5 | Cc1ccc(C)c(C(NC(=O)CCCn2ccnc2)c2ccncc2)c1 (stereo not shown) [CBK281476] | 96.1
6 | Cc1cc(S(=O)(=O)NCc2ccccc2-n2ccnc2)ccc1F [CBK281477] | 92.1
7 | Cc1nn(C)c(C)c1CN(C(=O)C(C)Oc1cccc(F)c1)C1CC1 (stereo not shown) [CBK281479] | 93.7
8 | Cc1nn(C)c(C)c1CN(C(=O)C(C)Oc1ccccc1F)C1CC1 (stereo not shown) [CBK281480] | 86.6
9 | Cc1nn(CC(=O)NC(C)c2cccnc2)c(C)c1C (stereo not shown) [CBK281489] | 102
10 | c1ccc(Cn2cncc2-c2cncn2CCCN2CCCCC2)cc1 [CBK281490] | 114
11 | Cc1nn(C)cc1-c1cncn1CCCC(C)(C)CO [CBK281492] | 86.1
12 | CC1CCN(Cc2c(-c3cccnc3)[nH]c3cccnc23)CC1 [CBK281494] | 98.8
13 | c1nn(C2CCCCC2)cc1-c1cncn1CCCN1CCCCC1 [CBK281495] | 97.5
14 | CCCn1nc(C)c(-c2cncn2CCCN2CCCCC2)c1C [CBK281496] | 100
15 | Cc1cccc(OCCn2cncc2-c2cnn(C)c2)c1C [CBK281497] | 99.5
16 | Cc1ccc2oc(C(=O)N3CCC(Oc4cccnc4)CC3)cc2c1 [CBK281498] | 106
17 | O=C(c1cccc(-c2ccc(F)cc2)c1)N1CC(O)C1 [CBK281499] | 100
18 | Cc1nn(C)cc1-c1cncn1CCOc1ccc(Cl)cc1 [CBK281508] | 87.5
19 | CCOc1ccc2c(c1)cc(C(=O)N(C)CC(F)(F)F)n2C [CBK281509] | 80.7
20 | CC(CCc1ccc(F)cc1)NC(=O)c1cc2c([nH]c1=O)CCC2 (stereo not shown) [CBK281512] | 91.9
21 | CN(CCN1CCCCC1)C(=O)Cn1cnc2ccccc21 [CBK281515] | 90.6
22 | O=C(NCc1cccc(OCC2CCCO2)c1)C1C2CCCCC21 (stereo not shown) [CBK281517] | 94.3
23 | Cc1c(CNCCN2CCCC2=O)c2ccccc2n1C [CBK281519] | 84.6
24 | c1csc(CN2CCC(c3cc4nccnc4[nH]3)CC2)c1 [CBK281520] | 88.9

Row | SMILES | viability at 28.5 h, 10 µM [%]
25 | CNS(=O)(=O)c1ccc2c(c1)CCN2C(=O)C1C2CCCCC21 (stereo not shown) [CBK281521] | 100
26 | Fc1cccc(Nc2nc(C3CCNCC3)c3ccccn23)c1 [CBK281522] | 107
27 | CCn1c(C(C)C)nc2cc(NC(=O)Cc3c(C)noc3C)ccc21 [CBK281527] | 90.3
28 | CC(CCCc1ccccc1)NC(=O)c1cc2c([nH]c1=O)CCC2 (stereo not shown) [CBK281528] | 87.6
29 | CC(Cn1cncn1)C(=O)N1CCC(CCc2ccccc2F)CC1 (stereo not shown) [CBK281529] | 96
30 | CCn1nc(C)c(C(C)NC(=O)CC(C)n2nc(C)cc2C)c1C (stereo not shown) [CBK281533] | 78.9
31 | CCn1nc(C)c(C(C)NC(=O)c2ccn(C(F)F)n2)c1C (stereo not shown) [CBK281534] | 79.8
32 | CC(C)n1nccc1NC(=O)CCn1ccnc1-c1ccccc1 [CBK281536] | 88.3
33 | Cc1nn(C(C)CC(=O)Nc2ccnn2C(C)C)c(C)c1Cl (stereo not shown) [CBK281537] | 95.8
34 | Cc1cc(C)n(C(C)CC(=O)Nc2cccc(OC(C)C)c2)n1 (stereo not shown) [CBK281538] | 96.5
35 | Cc1nccn1CC(=O)N1CCCC1(C)C(=O)NC1CCCC1 (stereo not shown) [CBK281539] | 98.7
36 | Clc1ccc(OCC2CCN(Cc3c[nH]cn3)CC2)cc1 [CBK281543] | 82.7
37 | CC(Oc1ccccc1F)C(=O)N1CCCCC1CN(C)C (stereo not shown) [CBK281544] | 89.5
38 | CCCn1ncc(C(=O)N2CCc3c([nH]c4ccccc34)C2C)c1C (stereo not shown) [CBK281546] | 98.3
39 | CCCn1c(C)cc2cc(NC(=O)C(C)n3ccnc3)ccc21 (stereo not shown) [CBK281547] | 85.8
40 | CCCn1c(C)cc2cc(NC(=O)Cn3ccnc3)ccc21 [CBK281549] | 92.4
41 | CCn1nc(C)c(C(C)NC(=O)C(C)n2cc(Cl)cn2)c1C (stereo not shown) [CBK281550] | 89.7
42 | CCn1cc(-c2cncn2CCN(C)C2CCCC2)cn1 [CBK281551] | 90.7
43 | CCn1cncc1C(=O)NCC1(c2ccccc2F)CCOCC1 [CBK281555] | 90.9
44 | CCn1cc(-c2cncn2CC(C)N2CCCCC2)cn1 (stereo not shown) [CBK281556] | 103
45 | Cc1nn(C(C)CC(=O)NCCN2CCC(C)CC2)c(C)c1Cl (stereo not shown) [CBK281558] | 90.2
46 | O=C(NCCCc1ccc(Cl)cc1)c1cc2c([nH]c1=O)CCC2 [CBK281560] | 89
47 | CCc1cc(CNC(=O)C2CN(Cc3ccc(Cl)cc3)C2)on1 [CBK281564] | 97.8
48 | CCn1cc(-c2cncn2CC(C)N2CCC(C)CC2)cn1 (stereo not shown) [CBK281565] | 91.7

Row | SMILES | viability at 28.5 h, 10 µM [%]
49 | Cc1cc(C)n(C)c(=O)c1C(=O)NCCCc1ccc(Cl)cc1 [CBK281566] | 88.2
50 | Cc1ccc2c(NC(=O)c3cc4c([nH]c3=O)CCC4)c(C)ccc2n1 [CBK281568] | 93
51 | Cc1nn(CC(C)C(=O)NCCN2CCC(C)CC2)c(C)c1Cl (stereo not shown) [CBK281570] | 94.2
52 | Cc1nn(CCC(=O)NCCN2CCC(C)CC2)c(C)c1Cl [CBK281571] | 104
53 | Cc1ccc(C2(CNC(=O)CCc3ccncc3)CCOCC2)cc1 [CBK281574] | 93.7
54 | Cn1c(C(=O)NCCc2cnccn2)cc2cc(Cl)ccc21 [CBK281575] | 90.9
55 | Cn1c(CN2CCN(C3CCCC3)C(=O)C2)nc2ccccc21 [CBK281577] | 100
56 | Cc1nc(-c2n[nH]cc2-c2ccccc2F)sc1CCN [CBK281578] | 102
57 | Cc1nccn1Cc1ccccc1C(=O)NCCn1ccnc1 [CBK281580] | 84.7
58 | Cc1cc(=O)n(CC(=O)NCCn2ccnc2)c2ccccc12 [CBK281583] | 94.3
59 | Cc1cc(C)n(-c2cccc(C(=O)NCCn3ccnc3)c2)n1 [CBK281585] | 109
60 | CCc1[nH]c(=O)c(C(=O)N2CCc3[nH]c4c(C)cccc4c3C2)cc1C [CBK281586] | 97.6
61 | Cc1nn(C)c(C)c1CN(C)C(=O)c1cc(-c2ccc(F)cc2)on1 [CBK281587] | 82.2
62 | Cc1ccc(C2(C(=O)NCCCn3ccnc3C)CCOCC2)cc1 [CBK281588] | 91.6
63 | Cc1nn(C)c(C)c1CN(C)S(=O)(=O)Cc1ccc(F)cc1 [CBK281590] | 86.8
64 | Cc1ccc(C(NC(=O)Cn2ccnc2)c2ccncc2)cc1C (stereo not shown) [CBK281591] | 87.4
65 | CCn1nc(C)c(-c2cncn2CC(C)N2CCC(C)CC2)c1C (stereo not shown) [CBK281593] | 103
66 | Cc1nn(C)cc1C(C)NC(=O)C1(c2ccccc2F)CCOCC1 (stereo not shown) [CBK281594] | 80.8
67 | CC1CCN(CCNC(=O)CCc2nc3ccc(Cl)cc3[nH]2)CC1 [CBK281599] | 88.7
68 | Cc1cccc2c3c([nH]c12)CCN(C(=O)C(C)N1CCOCC1)C3 (stereo not shown) [CBK281600] | 89.2
69 | CC(NC(=O)CCN1CCN(C)CC1)c1cc2cc(Cl)ccc2o1 (stereo not shown) [CBK281601] | 102
70 | Cn1nccc1-c1cc(C(=O)NC2(C)CCC2)c2ccccc2n1 [CBK281605] | 92.7
71 | CC1(NC(=O)Cn2c(C(F)(F)F)nc3ccccc32)CCC1 [CBK281606] | 82.2
72 | Cc1nc(CN2CCN(C(=O)C3C4CCCCC43)CC2)cs1 (stereo not shown) [CBK281607] | 93.8

Row | SMILES | viability at 28.5 h, 10 µM [%]
73 | CCc1nc2cc(NC(=O)Cn3cc(C)cn3)ccc2n1CC [CBK281608] | 84.9
74 | CCc1nc2cc(NC(=O)CCCn3ccnc3C)ccc2n1CC [CBK281609] | 101
75 | CC1(NC(=O)CC2C(=O)NCCN2Cc2cccc(F)c2)CCC1 (stereo not shown) [CBK281611] | 80.9
76 | CC(NC(=O)C1CC(=O)OC1(C)C)c1ccc2c(c1)CCCO2 (stereo not shown) [CBK281613] | 88.4
77 | Cc1cc(C)n(C2CCN(Cc3c(C)nc4ccccn34)CC2)n1 [CBK281614] | 83.4
78 | Cn1nccc1CN1CCC(Oc2ccccc2F)CC1 [CBK281618] | 92
79 | Cc1nccn1CC1CCCN(Cc2nc3ccccc3[nH]2)C1 (stereo not shown) [CBK281619] | 83.3
80 | Cc1cc(C)n(C2CCN(Cc3nc4ccccc4[nH]3)CC2)n1 [CBK281620] | 103
81 | Cc1ccc(OCCn2cncc2-c2cn(C)nc2C)cc1 [CBK281626] | 93.7
82 | Cc1nn(CCNC(=O)C2CC(=O)N(CC(C)C)C2)c(C)c1C (stereo not shown) [CBK281630] | 88
83 | O=C(NC1CCNC1)c1ccc(F)cc1 (stereo not shown) [CBK281632] | 87.2
84 | Cc1ccnn1CCNC(=O)C(C)Cc1cccs1 (stereo not shown) [CBK281633] | 109
85 | Cc1nc2ccc(NC(=O)CCn3nc(C)c(Cl)c3C)cc2s1 [CBK281634] | 106
86 | Cc1ccc2oc(C(=O)N(CCO)CCc3ccncc3)c(C)c2c1 [CBK281642] | 106
87 | O=C(c1cc2c(F)cccc2[nH]1)N(CCO)CCc1ccncc1 [CBK281644] | 98.3
88 | Cc1cc(C)n(CC(C)NC(=O)C(c2ccccc2)N2CCCC2)n1 (stereo not shown) [CBK281645] | 82.1
89 | Cc1nccn1CCCNC(=O)c1cccc(N2CCCCC2)c1 [CBK281646] | 91.4
90 | Fc1cccc(-c2nc3c(s2)CN(C2CCOCC2)CC3)c1 [CBK281647] | 87
91 | Cc1c(-c2cc(C(=O)NC(C)C3CC4CCC3C4)on2)cnn1C (stereo not shown) [CBK281651] | 92.8
92 | Cc1c(-c2cc(C(=O)NC(C)C3CC4CCC3C4)no2)cnn1C (stereo not shown) [CBK281653] | 91.3
93 | CC(NC(=O)c1ccccc1Cn1cncn1)C1CC2CCC1C2 (stereo not shown) [CBK281654] | 85.8
94 | Cc1cccc2c3c([nH]c12)CCN(C(=O)[C@@H]1C[C@@H]2C=C[C@H]1C2)C3 [CBK281656] | 93.6
